Patent US5330992A, “1-cyclopropyl-4-pyridyl-quinolinones” (priority 1992, dated 1994)
pIC50: −log10 of the molar value.

What was measured:
[1] = In vivo antitumor assay, Colo38(sc); design: species or system mouse; details: mouse, in vivo, drug route iv, Ex 26 qd 3-5 bid 6-11, Ex 30 and 33 qd 3-11
Description: (§1) Mice: Inbred: C3H/He and NCR-nu; and Hybrids: B6D2Fl (C57BL/6 females X DBA/2 males, CD2Fl (Balb/c females X DBS/2 males) and B6x C3fl (C57BL/6 x C3H) were bred at Wayne State University from strained obtained from the Frederick Cancer Research Facility, Frederick, Md. or purchased from commercial suppliers.
(§2) Tumors: Murine Tumor: P388 and an adriamycin-resistant (ADR) subline P388/ADR leukemia and the following transplantable solid tumors of mice were used for in Vivo testing: B16 melanoma (B16), pancreatic ductal adenocarcinoma No. 03 (Panc 03), colon adenocarcinoma No. 38 (colo 38), mammary ductal adenocarcinoma No. 16/C (Mam16) and an adriamycin-resistantsubline Mam16C/ADR. Human tumor: A single human tumor, mammary carcinoma MX-1 (MX1) was used for in vivo testing. All tumors are in the Developmental Therapeutics Program frozen tumor respository, maintained by the Biological Testing Branch, Frederick Md. Each has a detailed description, code identification number, and list of references at the National Tumor Repository. Murine tumors were maintained in the mouse strain of origin and were transplanted in the appropriate F1 hydrid (or the strain of origin) for therapy trials. Human mammary carcinoma MX-1 MX1) was maintained as a subcutaneous implant in either athymic Swiss (Cr: NIH(S)-nu) or athymic random bred (NCR-nu) mice and transplanted in NCR-nu for therapy trials.
(§3) Chemotherapy: For pancreatic ductal adenocarcinoma No. 3, colon adenocarcinoma No. 38 (colo38), lung carcinoma No. 12 (LC12) and both adriamycin-sensitive (RP) and -resistant ADR) mammary ductal adenocarcinoma No. 16 (Mam16) tumors, the following methods were used to help ensure a more uniform tumor burden per mouse (thus reducing the requirement for greater numbers of mice per group), bilateral tumor implants were used. The animals necessary to begin an experiment were pooled, implanted bilaterally s.c. on day zero with 30-60-mg tumor fragments using a 12-gauge trocar, and again pooled before randomization to the various treatment and control groups. Chemotherapy was started within three days after tumor implantation while the number of cells per mouse was relatively small (1×10^7 […]).
(§4) Quantitative end points used assess antitumor activity included % Increased Life Span (% ILS), Tumor Cell Kill (Log10 kill), and Tumor Growth Inhibition (T/C). Long Term Survivors (45 or 60 day) were excluded from calculations of % ILS and Tumor Cell Kill.
(§5) Tumors were measured with a caliper once or twice weekly (as needed) until either tumors exceeded 1600 mg or cure was assured. Tumor weights were estimated from two-dimensional measurements: Tumor Weight (mg)=(a×b^2) / 2, where a and b are the tumor length and width (nun) respectively. Measurements were carried out simultaneously in both treatment and control groups. When the control group tumors reached approximately 750-1500 mg in size (median of group), the median tumor weight of each group was determined (including zeros). The T/C value in percent is an indiation of antitumor effectiveness. The % T/C was calculated from the following formula for solid murine tumor models: [formula] where T and C are median tumor weights of the treatment and control groups, respectively. A T/C equal to or less than 42% is considered significant antitumor activity. A T/C value <10% is indicative of a high degree of antitumor activity and is the level used by National Cancer Institute to justify further development if other requirements are met (termed DN-2 level activity). By convention the T/C value for the mammary carcinoma MX-1 models is calculated by the parameter of change in tumor weight. The % T/C was calculated from the following formula for MX-1 models [formula] where ΔT and ΔC are the change in mean tumor weight of the test and control groups, respectively, and T (initial) is the initial mean tumor weight of the test group. […] A reproducible % T/C ≤10 is considered significant activity.

[2] = system: colon adenocarcinoma No. 38 (colo 38); test: In vivo antitumor assay, Colo38(sc); design: species or system mouse; details: drug route iv, Ex 26 qd 3-5 bid 6-11, Ex 30 and 33 qd 3-11
Description: as §1, §2, §3, §4, §5

[3] = system: P388 murine leukemia cells; test: Malignant cell cytotoxicity, one-hour exposure (clonogenic survival in soft agar); assay type: cell-based; details: Mus musculus, 1 hr exposure, read-out: IC50 P388 1 hr. exp.
Method: (§6) Examples of compound I having Topo II activity were tested for malignant cell cytotoxicity. In vitro cytotoxicity was assayed by determining cell survival following exposure of P388 murine leukemia cells to a range of test compound concentrations. Cytotoxicity was quantitated following either a one-hour exposure or continuous exposure of P388 cells to test compound.
(§7) Cytotoxicity following a one-hour exposure of cells to drug was assayed by quantitating clonogenic cell survival according to a published procedure [Freshney, R. L. (1987) Culture of Animal Cells. A Manual of Basic Technique. Wiley-Liss Inc., New York, N.Y., pp. 140-144]. Briefly, following drug exposure cells were plated in soft agar and incubated (37°, 5% CO2) for 7-10 days during which time viable cells form visible colonies. Cytotoxicity following continuous exposure of cells to test compound was assayed by quantitating total P388 cells on a Coultier Counter following a 48-hour co-incubation of test compound with cells. P388 cells were maintained in log phase throughout the duration of cytotoxicity assays.
(§8) The percentage of cells surviving relative to an untreated control was graphed as a function of increasing drug concentration.

[4] = system: human mammary carcinoma MX-1 (MX1); test: In vivo antitumor assay, MX1(src); design: species or system human tumor in athymic NCR-nu mice; details: drug route ip, qd 1,5,9, change in mean tumor weight
Description: as §1, §2
(§9) For P388 and P388/ADR leukemia studies the tumor cells were implanted either IP or intravenously (IV) on day zero and treatment was started on day one. For B16 melanoma (B16) studies, the tumor cells were implanted IP on day zero and treatment was started on day one. Tirered controls were also included to facilitate the calculation of tumor cell kill. For mammary carcinoma MX-1 studies, tumors were implanted with 1) subcutaneously (sc) (14-mg fragment of s.c. donor tumor) in the axillary region or 2) under the subrenal capsule (src) (10×10×10 ocular micrometer unit fragment of s.c. donor tumor). Treatment started on the day after subrenal capsule tumor implant or when the subcutaneous tumor implant had reached 100-700 mg.
as §4, §5

[5] = In vivo antitumor assay, MX1(src); design: species or system human tumor in athymic NCR-nu mice; details: mouse, in vivo, drug route ip, qd 1,5,9
Description: as §1, §2, §9, §4, §5

[6] = system: P388 murine leukemia cells; test: Malignant cell cytotoxicity, continuous 48-hour exposure (Coulter Counter); assay type: cell-based; details: Mus musculus, read-out: IC50 P388 cont. exp.
Method: as §6, §7, §8

Cc1cc(-c2c(F)cc3c(=O)c(Cc4c(O)cccc4O)cn(C4CC4)c3c2F)cc(C)n1 [Example 26, 1-Cyclopropyl-6,8-difluoro-7-[2,6-dimethyl-4-pyridinyl]-3-[2,6-dihydroxyphenylmethyl]-1,4-dihydroquinoline-4-one]
MTD [1]: 30 mg/kg | T/C % [2]: 46% | pIC50 [3]: 6.60 | T/C % [4]: 20% | MTD [5]: 8.1 mg/kg | pIC50 [6]: 7.26

Cc1cc(-c2c(F)cc3c(=O)c(Cc4ccccc4O)cn(C4CC4)c3c2F)cc(C)n1 [Example 30]
MTD [1]: 148 mg/kg | T/C % [2]: 42% | pIC50 [3]: 6.17 | T/C % [4]: 6% | MTD [5]: 304 mg/kg | pIC50 [6]: 6.54

Cc1cc(-c2c(F)cc3c(=O)c(Cc4ccc(O)cc4O)cn(C4CC4)c3c2F)cc(C)n1 [Example 33]
MTD [1]: 33 mg/kg | T/C % [2]: > 100% | pIC50 [3]: 6.68 | T/C % [4]: 8% | MTD [5]: 19 mg/kg | pIC50 [6]: 7.21
